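GI50 is the concentration that inhibits growth by half. The concentration for full growth arrest is given as TGI.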
Assays:
Assay in all cases: inhibition of tumour cell growth, NCI panel, 384-well format
786-0 renal = tested on: 786-0 renal
A498 renal = tested on: A498 renal
A549 NSCLC = tested on: A549 NSCLC
ACHN renal = tested on: ACHN renal
BT-549 breast = tested on: BT-549 breast
CAKI-1 renal = tested on: CAKI-1 renal
CCRF-CEM leukemia = tested on: CCRF-CEM leukemia
COLO 205 colon = tested on: COLO 205 colon
DU-145 prostate = tested on: DU-145 prostate
EKVX NSCLC = tested on: EKVX NSCLC
HCC-2998 colon = tested on: HCC-2998 colon
HCT-116 colon = tested on: HCT-116 colon
HCT-15 colon = tested on: HCT-15 colon
HL-60(TB) leukemia = tested on: HL-60(TB) leukemia
HOP-62 NSCLC = tested on: HOP-62 NSCLC
HOP-92 NSCLC = tested on: HOP-92 NSCLC
HS 578T breast = tested on: HS 578T breast
HT29 colon = tested on: HT29 colon
IGROV1 ovarian = tested on: IGROV1 ovarian
K-562 leukemia = tested on: K-562 leukemia
KM12 colon = tested on: KM12 colon
LOX IMVI melanoma = tested on: LOX IMVI melanoma
M14 melanoma = tested on: M14 melanoma
MALME-3M melanoma = tested on: MALME-3M melanoma
MCF7 breast = tested on: MCF7 breast
MDA-MB-231 breast = tested on: MDA-MB-231 breast
MDA-MB-435 melanoma = tested on: MDA-MB-435 melanoma
MDA-MB-468 breast = tested on: MDA-MB-468 breast
MOLT-4 leukemia = tested on: MOLT-4 leukemia
NCI-H226 lung = tested on: NCI-H226 lung
NCI-H23 lung = tested on: NCI-H23 lung
NCI-H322M lung = tested on: NCI-H322M lung
NCI-H460 NSCLC = tested on: NCI-H460 NSCLC
NCI-H522 lung = tested on: NCI-H522 lung
NCI/ADR-RES ovarian = tested on: NCI/ADR-RES ovarian
OVCAR-3 ovarian = tested on: OVCAR-3 ovarian
OVCAR-4 ovarian = tested on: OVCAR-4 ovarian
OVCAR-8 ovarian = tested on: OVCAR-8 ovarian
PC-3 prostate = tested on: PC-3 prostate
RPMI-8226 leukemia = tested on: RPMI-8226 leukemia
RXF 393 renal = tested on: RXF 393 renal
SF-268 CNS = tested on: SF-268 CNS
SF-295 CNS = tested on: SF-295 CNS
SF-539 CNS = tested on: SF-539 CNS
SK-MEL-28 melanoma = tested on: SK-MEL-28 melanoma
SK-MEL-5 melanoma = tested on: SK-MEL-5 melanoma
SK-OV-3 ovarian = tested on: SK-OV-3 ovarian
SN12C renal = tested on: SN12C renal
SNB-19 CNS = tested on: SNB-19 CNS
SNB-75 CNS = tested on: SNB-75 CNS
SW-620 colon = tested on: SW-620 colon
T-47D breast = tested on: T-47D breast
TK-10 renal = tested on: TK-10 renal
U251 glioblastoma = tested on: U251 glioblastoma
UACC-257 melanoma = tested on: UACC-257 melanoma
UACC-62 melanoma = tested on: UACC-62 melanoma
UO-31 renal = tested on: UO-31 renal

NC(=O)/C(=C/n1cnc(-c2cc(C(F)(F)F)cc(C(F)(F)F)c2)n1)c1cncnc1
GI50 ([…]-0 renal): 50.4 nM
TGI (786-0 renal): 1220 nM
GI50 (A498 renal): 42 nM
TGI (A498 renal): 232 nM
GI50 (A549 NSCLC): 196 nM
TGI (A549 NSCLC): 1640 nM
GI50 (ACHN renal): 329 nM
TGI (ACHN renal): 2670 nM
GI50 (BT-549 breast): 12.1 nM
TGI (BT-549 breast): 45.5 nM
GI50 (CAKI-1 renal): 22 nM
TGI (CAKI-1 renal): 1340 nM
GI50 (CCRF-CEM leukemia): 47.4 nM
TGI (CCRF-CEM leukemia): 188 nM
GI50 (COLO 205 colon): 44.1 nM
TGI (COLO 205 colon): 1740 nM
GI50 (DU-145 prostate): 235 nM
TGI (DU-145 prostate): 3.94 µM
GI50 (EKVX NSCLC): 591 nM
TGI (EKVX NSCLC): 4.14 µM
GI50 (HCC-2998 colon): 60.5 nM
TGI (HCC-2998 colon): 287 nM
GI50 (HCT-116 colon): 40.1 nM
TGI (HCT-116 colon): 232 nM
GI50 (HCT-15 colon): 92.7 nM
TGI (HCT-15 colon): 1180 nM
GI50 (HL-60(TB) leukemia): 15.3 nM
TGI (HL-60(TB) leukemia): 131 nM
GI50 (HOP-62 NSCLC): 229 nM
TGI (HOP-62 NSCLC): 995 nM
GI50 (HOP-92 NSCLC): 438 nM
TGI (HOP-92 NSCLC): 2060 nM
GI50 (HS 578T breast): 33 nM
TGI (HS 578T breast): 244 nM
GI50 (HT29 colon): 65.6 nM
TGI (HT29 colon): 943 nM
GI50 (IGROV1 ovarian): 296 nM
TGI (IGROV1 ovarian): 2130 nM
GI50 (K-562 leukemia): 37.2 nM
TGI (K-562 leukemia): 1030 nM
GI50 (KM12 colon): 191 nM
TGI (KM12 colon): 1930 nM
GI50 (LOX IMVI melanoma): 144 nM
TGI (LOX IMVI melanoma): 687 nM
GI50 (M14 melanoma): 146 nM
TGI (M14 melanoma): 485 nM
GI50 (MALME-3M melanoma): 32.2 nM
TGI (MALME-3M melanoma): 483 nM
GI50 (MCF7 breast): 47.8 nM
TGI (MCF7 breast): 10.9 µM
GI50 (MDA-MB-231 breast): 29.5 nM
TGI (MDA-MB-231 breast): 253 nM
GI50 (MDA-MB-435 melanoma): 40.9 nM
TGI (MDA-MB-435 melanoma): 170 nM
GI50 (MDA-MB-468 breast): 73 nM
TGI (MDA-MB-468 breast): 247 nM
GI50 (MOLT-4 leukemia): 14.5 nM
TGI (MOLT-4 leukemia): 28.2 nM
GI50 (NCI-H226 lung): 31.6 nM
TGI (NCI-H226 lung): 400 nM
GI50 (NCI-H23 lung): 71.3 nM
TGI (NCI-H23 lung): 1120 nM
GI50 (NCI-H322M lung): 297 nM
TGI (NCI-H322M lung): 2900 nM
GI50 (NCI-H460 NSCLC): 29.6 nM
TGI (NCI-H460 NSCLC): 131 nM
GI50 (NCI-H522 lung): 24.9 nM
TGI (NCI-H522 lung): 184 nM
GI50 (NCI/ADR-RES ovarian): 222 nM
TGI (NCI/ADR-RES ovarian): 1680 nM
GI50 (OVCAR-3 ovarian): 28 nM
TGI (OVCAR-3 ovarian): 171 nM
GI50 (OVCAR-4 ovarian): 249 nM
TGI (OVCAR-4 ovarian): 780 nM
GI50 (OVCAR-8 ovarian): 37.8 nM
TGI (OVCAR-8 ovarian): 1050 nM
GI50 (PC-3 prostate): 26.1 nM
TGI (PC-3 prostate): 110 nM
TGI (RPMI-8226 leukemia): 24.1 nM
GI50 (RXF 393 renal): 24.4 nM
TGI (RXF 393 renal): 116 nM
GI50 (SF-268 CNS): 26.7 nM
TGI (SF-268 CNS): 95.3 nM
GI50 (SF-295 CNS): 327 nM
TGI (SF-295 CNS): 2690 nM
GI50 (SF-539 CNS): 27.5 nM
TGI (SF-539 CNS): 84 nM
GI50 (SK-MEL-28 melanoma): 106 nM
TGI (SK-MEL-28 melanoma): 372 nM
GI50 (SK-MEL-5 melanoma): 192 nM
TGI (SK-MEL-5 melanoma): 1190 nM
GI50 (SK-OV-3 ovarian): 92.2 nM
TGI (SK-OV-3 ovarian): 8.97 µM
GI50 (SN12C renal): 598 nM
TGI (SN12C renal): 2260 nM
GI50 (SNB-19 CNS): 188 nM
TGI (SNB-19 CNS): 1880 nM
GI50 (SNB-75 CNS): 15.4 nM
TGI (SNB-75 CNS): 41.9 nM
GI50 (SW-620 colon): 41 nM
TGI (SW-620 colon): 1410 nM
GI50 (T-47D breast): 192 nM
TGI (T-47D breast): 1580 nM
GI50 (TK-10 renal): 47.5 nM
TGI (TK-10 renal): 1350 nM
GI50 (U251 glioblastoma): 120 nM
TGI (U251 glioblastoma): 785 nM
GI50 (UACC-257 melanoma): 591 nM
TGI (UACC-257 melanoma): 2120 nM
GI50 (UACC-62 melanoma): 57.2 nM
TGI (UACC-62 melanoma): 241 nM
GI50 (UO-31 renal): 269 nM
TGI (UO-31 renal): 1570 nM

— PubChem BioAssay (NCI)
